Laboratory results reported in ChEMBL document CHEMBL1201862, “PubChem BioAssay data set” (2004).
Activity calls are given as the source filed them.

What was measured:
[1] = target: T1, Short transient receptor potential channel 4 (Mus musculus, UniProt Q9QUQ5); assay: mouse TRPC4 channel activators, dose response, cell-based, HEK293 TRPC4/mu-opioid, Fluo-4 calcium (AID 434937); type: functional
T1 sequence (Q9QUQ5 whole entry): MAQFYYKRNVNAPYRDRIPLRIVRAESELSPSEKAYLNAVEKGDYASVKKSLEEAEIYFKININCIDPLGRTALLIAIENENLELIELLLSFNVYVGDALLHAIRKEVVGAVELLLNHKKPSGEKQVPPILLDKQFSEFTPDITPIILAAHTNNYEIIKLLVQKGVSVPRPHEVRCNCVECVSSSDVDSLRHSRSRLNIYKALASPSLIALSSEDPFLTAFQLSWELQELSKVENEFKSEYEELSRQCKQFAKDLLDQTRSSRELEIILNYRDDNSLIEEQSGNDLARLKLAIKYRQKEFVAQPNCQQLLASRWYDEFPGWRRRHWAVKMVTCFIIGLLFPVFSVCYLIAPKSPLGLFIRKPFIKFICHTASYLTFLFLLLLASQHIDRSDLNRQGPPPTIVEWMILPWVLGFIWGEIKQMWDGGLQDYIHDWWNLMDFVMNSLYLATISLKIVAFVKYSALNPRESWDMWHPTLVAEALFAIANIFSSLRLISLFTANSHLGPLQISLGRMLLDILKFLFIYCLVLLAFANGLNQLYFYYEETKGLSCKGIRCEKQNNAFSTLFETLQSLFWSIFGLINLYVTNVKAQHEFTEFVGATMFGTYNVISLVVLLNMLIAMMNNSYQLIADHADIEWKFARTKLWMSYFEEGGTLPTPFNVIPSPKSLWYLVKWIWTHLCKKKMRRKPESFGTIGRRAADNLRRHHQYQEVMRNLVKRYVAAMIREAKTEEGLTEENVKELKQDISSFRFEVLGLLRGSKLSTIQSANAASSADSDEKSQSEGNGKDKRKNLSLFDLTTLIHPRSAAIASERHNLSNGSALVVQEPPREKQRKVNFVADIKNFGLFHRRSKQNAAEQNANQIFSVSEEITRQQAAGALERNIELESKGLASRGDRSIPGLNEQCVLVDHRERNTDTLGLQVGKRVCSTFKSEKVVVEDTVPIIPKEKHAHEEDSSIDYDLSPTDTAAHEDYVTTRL

[2] = target: Delta-type opioid receptor (Homo sapiens, UniProt P41143); assay: Counterscreen for agonists of heterodimerization of the mu 1 (OPRM1) and delta 1 (OPRD1) opioid receptors: Luminescence-based cell-based high throughput dose response assay to identify agonists of OPRD1 homodimerization. [Related pubchem assays (depositor defined):AID504326, AID504355, AID504692, AID504904, AID504905]; type: functional
Mu-type opioid receptor = Mu-type opioid receptor (Homo sapiens, UniProt P35372); assay: Counterscreen for agonists of heterodimerization of the mu 1 (OPRM1) and delta 1 (OPRD1) opioid receptors: Luminescence-based cell-based high throughput dose response assay to identify agonists of OPRM1 homodimerization.; type: functional;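 also: U2OS cells expressing OPRM1 and beta-arrestin as split beta-galactosidase partners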
[3] = target: 5-hydroxytryptamine receptor 5A (Homo sapiens, UniProt P47898); assay: Counterscreen for agonists of OPRM1-OPRD1 heterodimerization: luminescence-based cell-based high throughput dose response assay to identify agonists of 5-hydroxytryptamine (serotonin) 5A receptor (HTR5A). [Related pubchem assays (depositor defined):AID504326, AID504355, AID504692, AID504904, AID504905]; type: functional
Escherichia coli = assay: microbe, parasite or virus in culture
HeLa = assay: HeLa cell cytotoxicity, dose response, cytotoxicity control for MITF activator project, CellTiter-Glo luminescence, cherry-pick samples (AID 540259); type: functional, cell-based; conditions: Homo sapiens
[4] = target: T2, Tyrosine-protein phosphatase non-receptor type 22 (Homo sapiens, UniProt Q9Y2R2); assay: SAR LYP1 Fluorescent Assay using pCAP substrate for In Vitro dose response studies - Set 2. [Related pubchem assays (depositor defined):AID1779, AID1784, AID2135, AID449727]; type: functional
T2 sequence (Q9Y2R2 whole entry): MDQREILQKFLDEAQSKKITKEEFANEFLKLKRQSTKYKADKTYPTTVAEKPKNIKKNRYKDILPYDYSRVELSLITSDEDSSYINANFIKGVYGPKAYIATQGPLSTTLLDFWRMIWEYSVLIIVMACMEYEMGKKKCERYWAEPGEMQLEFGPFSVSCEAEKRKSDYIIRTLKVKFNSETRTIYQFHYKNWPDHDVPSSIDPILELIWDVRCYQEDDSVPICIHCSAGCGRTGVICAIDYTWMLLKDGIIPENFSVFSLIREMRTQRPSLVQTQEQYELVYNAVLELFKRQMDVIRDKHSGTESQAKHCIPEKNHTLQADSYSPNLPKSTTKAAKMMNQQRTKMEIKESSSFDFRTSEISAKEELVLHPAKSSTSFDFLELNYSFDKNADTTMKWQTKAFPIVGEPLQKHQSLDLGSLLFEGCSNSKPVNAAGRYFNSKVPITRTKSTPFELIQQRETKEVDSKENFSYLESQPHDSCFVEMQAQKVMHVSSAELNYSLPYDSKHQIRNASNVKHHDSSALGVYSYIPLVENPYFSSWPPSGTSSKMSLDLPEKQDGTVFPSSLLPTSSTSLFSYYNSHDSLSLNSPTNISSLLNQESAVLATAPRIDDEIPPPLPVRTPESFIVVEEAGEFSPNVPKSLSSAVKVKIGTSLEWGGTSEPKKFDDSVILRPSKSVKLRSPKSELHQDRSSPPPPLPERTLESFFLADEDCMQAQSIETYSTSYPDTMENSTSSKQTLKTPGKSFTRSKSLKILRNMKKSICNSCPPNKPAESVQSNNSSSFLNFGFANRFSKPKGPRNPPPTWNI

[5] = target: T3, Tyrosine-protein phosphatase non-receptor type 12 (Homo sapiens, UniProt Q05209); assay: SAR Selectivity Analysis of small molecule inhibitors of PEST using pCAP in a fluorescence assay. [Related pubchem assays (depositor defined):AID1779, AID1784, AID2135]; type: functional
T3 sequence (Q05209 whole entry): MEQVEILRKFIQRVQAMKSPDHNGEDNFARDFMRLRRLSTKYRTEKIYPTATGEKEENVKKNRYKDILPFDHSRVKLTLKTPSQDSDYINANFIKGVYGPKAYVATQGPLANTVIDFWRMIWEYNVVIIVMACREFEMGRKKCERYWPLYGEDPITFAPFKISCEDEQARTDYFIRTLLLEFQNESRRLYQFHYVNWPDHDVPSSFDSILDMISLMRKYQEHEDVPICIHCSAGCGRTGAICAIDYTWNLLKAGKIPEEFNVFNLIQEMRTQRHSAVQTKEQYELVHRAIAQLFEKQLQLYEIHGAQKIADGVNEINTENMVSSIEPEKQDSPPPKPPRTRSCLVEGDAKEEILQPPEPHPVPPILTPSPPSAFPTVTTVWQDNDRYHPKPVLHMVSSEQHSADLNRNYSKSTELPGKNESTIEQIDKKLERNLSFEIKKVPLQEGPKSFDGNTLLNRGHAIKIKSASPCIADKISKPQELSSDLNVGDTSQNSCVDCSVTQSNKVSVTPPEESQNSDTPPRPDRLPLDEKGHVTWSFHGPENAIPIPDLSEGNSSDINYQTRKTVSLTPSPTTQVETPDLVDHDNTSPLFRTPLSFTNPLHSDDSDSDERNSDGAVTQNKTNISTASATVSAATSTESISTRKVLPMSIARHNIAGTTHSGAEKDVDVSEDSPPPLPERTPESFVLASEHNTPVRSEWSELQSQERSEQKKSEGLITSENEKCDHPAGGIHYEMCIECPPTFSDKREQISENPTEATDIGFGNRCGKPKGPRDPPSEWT

[6] = target: T2, Tyrosine-protein phosphatase non-receptor type 22; assay: SAR LYP1 Fluorescent Assay using OMFP substrate for In Vitro dose response studies - Set 3. [Related pubchem assays (depositor defined):AID1779, AID1784, AID2140, AID2686]; type: functional
[7] = target: T4, Tyrosine-protein phosphatase non-receptor type 7 (Homo sapiens, UniProt P35236); assay: HePTP (PTPN7) phosphatase inhibitor potency, SAR follow-up, biochemical, set 2 (AID 449736); type: functional
T4 sequence (P35236 whole entry): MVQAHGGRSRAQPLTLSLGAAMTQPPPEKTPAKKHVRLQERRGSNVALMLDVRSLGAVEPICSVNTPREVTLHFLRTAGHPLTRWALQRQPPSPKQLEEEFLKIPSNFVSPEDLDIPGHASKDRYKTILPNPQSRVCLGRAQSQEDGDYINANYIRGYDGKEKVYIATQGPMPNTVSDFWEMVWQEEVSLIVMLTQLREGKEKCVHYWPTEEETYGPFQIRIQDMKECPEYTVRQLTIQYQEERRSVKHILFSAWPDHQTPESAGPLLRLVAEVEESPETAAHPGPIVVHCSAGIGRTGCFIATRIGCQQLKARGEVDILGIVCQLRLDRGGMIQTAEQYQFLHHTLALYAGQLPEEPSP

[8] = target: T2, Tyrosine-protein phosphatase non-receptor type 22; assay: LYP (PTPN22) phosphatase inhibitor potency, SAR follow-up, biochemical, pCAP fluorogenic substrate, fluorescence, set 3 (AID 449727); type: functional
[9] = target: T2, Tyrosine-protein phosphatase non-receptor type 22; assay: SAR LYP1 Fluorescent Assay using OMFP substrate for In Vitro dose response studies - Set 2. [Related pubchem assays (depositor defined):AID1779, AID1784, AID2140, AID449726, AID488869]; type: functional
CAAX prenyl protease 2 [10] = target: T5, CAAX prenyl protease 2 (Saccharomyces cerevisiae S288c, UniProt Q03530); type: biochemical
T5 sequence (Q03530 whole entry): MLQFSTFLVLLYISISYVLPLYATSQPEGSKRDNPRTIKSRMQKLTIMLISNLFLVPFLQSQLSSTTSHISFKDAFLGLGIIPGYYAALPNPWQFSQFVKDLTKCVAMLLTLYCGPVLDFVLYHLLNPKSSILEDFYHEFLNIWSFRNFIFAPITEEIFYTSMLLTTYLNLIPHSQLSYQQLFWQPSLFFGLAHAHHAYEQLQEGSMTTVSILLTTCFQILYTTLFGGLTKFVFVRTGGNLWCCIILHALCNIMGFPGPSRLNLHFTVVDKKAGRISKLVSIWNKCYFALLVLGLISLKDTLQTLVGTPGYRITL

CAAX prenyl protease 2 [11] = target: T6, CAAX prenyl protease 2 (Homo sapiens, UniProt Q9Y256); assay: human Rce1 protease inhibitors, dose response, biochemical, yeast membranes, quenched-peptide fluorescence, cherry-pick (AID 588849)
T6 sequence (Q9Y256 whole entry): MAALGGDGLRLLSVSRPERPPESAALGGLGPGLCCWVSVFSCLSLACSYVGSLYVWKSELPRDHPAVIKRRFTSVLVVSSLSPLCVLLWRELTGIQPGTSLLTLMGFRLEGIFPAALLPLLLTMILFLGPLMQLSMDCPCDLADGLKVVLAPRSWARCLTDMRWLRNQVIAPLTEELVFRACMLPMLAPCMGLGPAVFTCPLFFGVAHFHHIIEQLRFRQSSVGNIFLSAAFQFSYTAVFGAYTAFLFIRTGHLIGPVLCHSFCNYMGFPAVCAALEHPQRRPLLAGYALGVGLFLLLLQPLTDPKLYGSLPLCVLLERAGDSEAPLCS

[12] = target: Voltage-gated inwardly rectifying potassium channel KCNH2 (Homo sapiens, UniProt Q12809); conditions: Potency;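 also: confirmatory quantitative high-throughput screen measuring inhibition of hERG channel activity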
[13] = M. tuberculosis H37Rv growth inhibitors, H37Rv strain (AID 1626); type: functional

Delta-type opioid receptor, sequence (P41143 whole entry): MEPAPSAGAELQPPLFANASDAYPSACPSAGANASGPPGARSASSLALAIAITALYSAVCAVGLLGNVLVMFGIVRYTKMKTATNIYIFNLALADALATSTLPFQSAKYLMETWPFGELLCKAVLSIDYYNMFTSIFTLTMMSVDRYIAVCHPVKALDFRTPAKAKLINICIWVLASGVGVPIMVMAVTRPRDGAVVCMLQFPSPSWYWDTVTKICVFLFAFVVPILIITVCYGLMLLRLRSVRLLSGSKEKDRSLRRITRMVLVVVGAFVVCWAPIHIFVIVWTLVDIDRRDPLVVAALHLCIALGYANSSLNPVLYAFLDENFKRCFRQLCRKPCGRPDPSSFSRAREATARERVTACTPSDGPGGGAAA
Mu-type opioid receptor, sequence (P35372 whole entry): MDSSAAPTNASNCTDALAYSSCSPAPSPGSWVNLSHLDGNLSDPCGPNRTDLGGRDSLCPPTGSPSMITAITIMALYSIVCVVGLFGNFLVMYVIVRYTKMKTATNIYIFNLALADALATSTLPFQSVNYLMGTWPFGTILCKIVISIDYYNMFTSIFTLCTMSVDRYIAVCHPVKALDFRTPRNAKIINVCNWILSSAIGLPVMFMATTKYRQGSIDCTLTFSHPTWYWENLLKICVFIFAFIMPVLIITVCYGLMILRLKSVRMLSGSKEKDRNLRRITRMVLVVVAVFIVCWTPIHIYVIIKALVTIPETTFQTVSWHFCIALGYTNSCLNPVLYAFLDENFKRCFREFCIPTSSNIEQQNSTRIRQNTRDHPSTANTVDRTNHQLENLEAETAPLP
5-hydroxytryptamine receptor 5A, sequence (P47898 whole entry): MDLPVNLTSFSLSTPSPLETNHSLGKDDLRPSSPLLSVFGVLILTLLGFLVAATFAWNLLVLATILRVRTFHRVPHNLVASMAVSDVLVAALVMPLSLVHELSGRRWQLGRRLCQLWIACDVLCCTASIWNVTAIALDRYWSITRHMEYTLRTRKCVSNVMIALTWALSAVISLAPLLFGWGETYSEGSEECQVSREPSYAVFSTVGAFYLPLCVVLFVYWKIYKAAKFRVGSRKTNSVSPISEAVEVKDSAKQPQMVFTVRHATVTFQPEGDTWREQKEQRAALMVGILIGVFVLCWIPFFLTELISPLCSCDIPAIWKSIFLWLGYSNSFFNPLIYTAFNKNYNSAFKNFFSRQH
Voltage-gated inwardly rectifying potassium channel KCNH2, sequence (Q12809 whole entry): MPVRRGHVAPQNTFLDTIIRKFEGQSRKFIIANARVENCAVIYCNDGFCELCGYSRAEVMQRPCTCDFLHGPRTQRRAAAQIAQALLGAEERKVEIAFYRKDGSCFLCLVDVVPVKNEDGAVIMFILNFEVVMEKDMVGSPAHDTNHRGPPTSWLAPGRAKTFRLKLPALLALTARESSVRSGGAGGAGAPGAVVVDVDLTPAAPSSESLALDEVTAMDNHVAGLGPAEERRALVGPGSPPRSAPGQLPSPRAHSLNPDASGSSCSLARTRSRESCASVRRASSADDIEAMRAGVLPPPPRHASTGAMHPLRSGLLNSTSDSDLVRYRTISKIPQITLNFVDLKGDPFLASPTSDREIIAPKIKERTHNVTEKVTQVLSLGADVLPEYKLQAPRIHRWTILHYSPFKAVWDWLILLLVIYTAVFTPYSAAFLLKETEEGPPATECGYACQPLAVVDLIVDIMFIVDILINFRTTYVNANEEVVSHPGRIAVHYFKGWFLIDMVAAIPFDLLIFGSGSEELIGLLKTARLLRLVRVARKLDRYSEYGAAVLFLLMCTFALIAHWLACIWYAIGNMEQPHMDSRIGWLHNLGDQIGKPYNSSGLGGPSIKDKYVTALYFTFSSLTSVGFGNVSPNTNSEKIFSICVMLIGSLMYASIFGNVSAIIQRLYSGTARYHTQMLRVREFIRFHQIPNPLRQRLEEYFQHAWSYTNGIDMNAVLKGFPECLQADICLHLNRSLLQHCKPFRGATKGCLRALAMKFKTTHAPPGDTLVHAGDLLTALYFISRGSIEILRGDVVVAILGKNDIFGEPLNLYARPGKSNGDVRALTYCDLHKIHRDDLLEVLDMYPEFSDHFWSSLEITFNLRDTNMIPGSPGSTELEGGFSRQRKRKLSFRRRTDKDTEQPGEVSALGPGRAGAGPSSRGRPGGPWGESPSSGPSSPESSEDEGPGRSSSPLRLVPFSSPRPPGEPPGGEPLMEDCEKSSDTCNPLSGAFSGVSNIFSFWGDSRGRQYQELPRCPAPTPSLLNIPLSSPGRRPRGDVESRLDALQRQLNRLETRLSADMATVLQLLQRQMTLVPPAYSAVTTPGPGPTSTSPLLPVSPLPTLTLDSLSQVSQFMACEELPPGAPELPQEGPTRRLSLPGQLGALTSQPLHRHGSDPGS

Compound: COc1ccc(C(CNC(=O)c2ccc3c(c2)CCC3)N(C)C)cc1 (stereo not drawn)
- EC50 [1]: 0.0053 µM (active)
- EC50 [2]: 7.36 µM (active)
- EC50 (Mu-type opioid receptor): 0.503 µM (active)
- EC50 [3]: > 92.5 µM (inactive)

Compound: C#CC(C)(CC)NC(=O)c1cc2cccc(CC=C)c2oc1=O (stereo not drawn)
- AC50 (Escherichia coli): 23.8 µM (active)

Compound: Cc1nnc2sc(-c3ccc(N(C)C)cc3)nn2c1=O
- AC50 (HeLa): 55.2 µM (active)

Compound: COc1ccc2cc(CCNC(=O)c3cccs3)c(O)nc2c1
- AC50 (HeLa): 51 µM (active)

Compound: Cc1cccnc1NC(=O)c1cccc(S(=O)(=O)N2CCCc3ccccc32)c1
- AC50 (Escherichia coli): 23.6 µM (active)

Compound: O=C(CSc1nccn1Cc1ccccc1)NC1CCCC1
- AC50 (Escherichia coli): 25.5 µM (active)

Compound: COc1cc(/C=C2/SC(=S)N(c3cccc(C(=O)O)c3)C2=O)cc(Cl)c1OCc1cccc(C(=O)O)c1
- IC50 [4]: 12.2 µM (active)
- IC50 [5]: 2.81 µM (active)
- IC50 [6]: 62.8 µM (active)
- IC50 [7]: 3.81 µM (active)
- IC50 [8]: 20.4 µM (active)
- IC50 [9]: 14.6 µM (active)

Compound: O=C(CC1(O)C(=O)N(C/C=C/c2ccccc2)c2ccccc21)c1ccccn1 (stereo not drawn)
- AC50 (CAAX prenyl protease 2 [10]): 26.3 µM (active)
- AC50 (CAAX prenyl protease 2 [11]): 59.1 µM (active)

Compound: Nc1ccc(Cc2ccc(N)c(Cl)c2)cc1Cl
- AC50 [12]: 79.4 µM (inconclusive)

Compound: COc1cc(/C=C2/SC(=S)N(c3cccc(C(=O)O)c3)C2=O)ccc1OCc1ccc(Cl)cc1
- IC50 [4]: 3.68 µM (active)
- IC50 [5]: 0.953 µM (active)
- IC50 [6]: 3.06 µM (active)
- IC50 [7]: 0.394 µM (active)
- IC50 [8]: 3.49 µM (active)
- IC50 [9]: 4.04 µM (active)

Compound: Fc1cccc(-c2cc3nc(-c4ccccc4)cc(N4CCC5(CC4)OCCO5)n3n2)c1
- IC50 [13]: > 100 µM (active)
- AC50 (CAAX prenyl protease 2 [11]): 1.35 µM (active)

Compound: CCN1CCN(S(=O)(=O)c2ccc(Cl)c(C(=O)N(CCc3ccccc3)Cc3ccccc3)c2)CC1
- EC50 [2]: > 92.5 µM (inactive)
- EC50 (Mu-type opioid receptor): > 92.5 µM (inactive)
- EC50 [3]: > 92.5 µM (inactive)

Compound: c1ccc(-n2ncc3c(NCc4cccs4)ncnc32)cc1
- AC50 (HeLa): 55.5 µM (active)

Compound: CC(=O)OC1CCC2(C)C(COc3ccc4ccc(=O)oc4c3)C(C)(O)CCC2C1(C)C (stereo not drawn)
- AC50 (CAAX prenyl protease 2 [10]): 18.1 µM (active)
- AC50 (CAAX prenyl protease 2 [11]): 87.2 µM (active)

Compound: CCOc1ccc(/C=N/NC(=O)c2ccc(-c3csc(Nc4ccc(C)cc4)n3)cc2)cc1OCC
- IC50 [4]: > 100 µM (inactive)
- IC50 [5]: > 100 µM (inactive)
- IC50 [6]: > 100 µM (inactive)
- IC50 [7]: 60.8 µM (active)
- IC50 [8]: > 100 µM (inactive)
- IC50 [9]: 95.3 µM (active)
